Assay [1] relates to Trypanosoma cruzi. The assay can be described thus: Antimicrobial activity against benznidazole-resistant epimastigotes of Trypanosoma cruzi Tulahuen 2 assessed as growth inhibition at 25 uM measured on day 5 by spectrophotometry. The assay is classed as functional. To be noted: Tulahuen 2, 120 h, read-out: GI.
Assay [2] has as its system Mycobacterium tuberculosis. The experiment in a line: Antimicrobial activity against Mycobacterium tuberculosis H37Rv ATCC 27294 by microplate Alamar Blue assay. The format is functional.
For assay [3], the system named is Trypanosoma cruzi. The assay can be described thus: Antimicrobial activity against benznidazole-resistant epimastigotes of Trypanosoma cruzi Tulahuen 2 assessed as growth inhibition measured on day 5 by spectrophotometry. The conditions noted are these: Tulahuen 2, 120 h. The assay is classed as functional, organism-based.

The results in this text go back to ChEMBL document CHEMBL2429724, “Computational POM evaluation of experimental in vitro Trypanosoma cruzi and Mycobacterium tuberculosis inhibition of heterocyclic-2-carboxylic acid (3-cyano-1,4-di-noxidequinoxalin-2-yl)amide derivatives” (Med Chem Res, 2013).

Converted amounts (≈) assume the structure as drawn.

As for `N#Cc1c(NC(=O)c2ccco2)[n+]([O-])c2cc(F)c(F)cc2[n+]1[O-]`, the inhibition of growth at 25 µM with Trypanosoma cruzi [1] was determined as 53%. This compound also yielded an MIC in assay [2] of 4.7 µg/mL (≈ 14.1 µM).
Regarding `N#Cc1c(NC(=O)c2cccs2)[n+]([O-])c2cc(F)c(F)cc2[n+]1[O-]`, in the assay with Trypanosoma cruzi [1], the inhibition of growth at 25 µM was found to be 92%.
In assay [2], `N#Cc1c(NC(=O)c2ccc([N+](=O)[O-])o2)[n+]([O-])c2ccc(C(F)(F)F)cc2[n+]1[O-]` had an MIC of 14.4 µg/mL (≈ 35.2 µM).
For `N#Cc1c(NC(=O)c2ccc([N+](=O)[O-])s2)[n+]([O-])c2ccccc2[n+]1[O-]`, the inhibition of growth at 25 µM with Trypanosoma cruzi [1] came out at 0%. In assay [2], this compound had an MIC of 2.88 µg/mL (≈ 8.06 µM).
On to `Cc1ccc2c(c1)[n+]([O-])c(C#N)c(NC(=O)c1ccc([N+](=O)[O-])s1)[n+]2[O-]`, for which the inhibition of growth at 25 µM with Trypanosoma cruzi [1] was determined as 11.4%.
As for `Cc1cc2c(cc1C)[n+]([O-])c(NC(=O)c1ccc([N+](=O)[O-])s1)c(C#N)[n+]2[O-]`, in the assay on Trypanosoma cruzi [1], the inhibition of growth at 25 µM turned out to be 36.4%.
As for `COc1ccc2c(c1)[n+]([O-])c(C#N)c(NC(=O)c1ccc([N+](=O)[O-])s1)[n+]2[O-]`, the MIC in assay [2] stood at 9.54 µg/mL (≈ 24.6 µM).
For `N#Cc1c(NC(=O)c2ccc([N+](=O)[O-])s2)[n+]([O-])c2ccc(Cl)cc2[n+]1[O-]`, the inhibition of growth at 25 µM in the assay on Trypanosoma cruzi [1] is 15%.
In the case of `N#Cc1c(NC(=O)c2ccc([N+](=O)[O-])s2)[n+]([O-])c2cc(Cl)c(Cl)cc2[n+]1[O-]`, in the assay on Trypanosoma cruzi [1], the inhibition of growth at 25 µM came to 29.8%.
Consider `N#Cc1c(NC(=O)c2ccc([N+](=O)[O-])s2)[n+]([O-])c2ccc(F)cc2[n+]1[O-]`, for which the inhibition of growth at 25 µM with Trypanosoma cruzi [1] is 2.5%.
In the case of `N#Cc1c(NC(=O)c2ccc([N+](=O)[O-])s2)[n+]([O-])c2cc(F)c(F)cc2[n+]1[O-]`, the inhibition of growth at 25 µM in the assay on Trypanosoma cruzi [1] is 9.2%.
Turning to `N#Cc1c(NC(=O)c2ccc([N+](=O)[O-])s2)[n+]([O-])c2cc(C(F)(F)F)ccc2[n+]1[O-]`, the MIC in assay [2] was 1.7 µg/mL (≈ 4 µM).
In assay [2], `N#Cc1c(NC(=O)c2ccc([N+](=O)[O-])s2)[n+]([O-])c2ccc(C(F)(F)F)cc2[n+]1[O-]` returned an MIC of 6 µg/mL (≈ 14.1 µM).
As for `N#Cc1c(NC(=O)c2cccs2)[n+]([O-])c2ccc(F)cc2[n+]1[O-]`, the inhibition of growth at 25 µM in the assay with Trypanosoma cruzi [1] came out at 27.5%. The compound also returned an MIC in assay [2] of 1.47 µg/mL (≈ 4.45 µM).
For `N#Cc1c(NC(=O)c2cccs2)[n+]([O-])c2cc(F)ccc2[n+]1[O-]`, in assay [2], the MIC turned out to be 4.58 µg/mL (≈ 13.9 µM).
The compound `N#Cc1c(NC(=O)c2cccs2)[n+]([O-])c2ccc(C(F)(F)F)cc2[n+]1[O-]` displayed an MIC in assay [2] of 9.18 µg/mL (≈ 24.1 µM).
For the compound `N#Cc1c(NC(=O)c2ccc([N+](=O)[O-])o2)[n+]([O-])c2ccccc2[n+]1[O-]`, the inhibition of growth at 25 µM in the assay on Trypanosoma cruzi [1] came to 0.7%.
As to `Cc1ccc2c(c1)[n+]([O-])c(C#N)c(NC(=O)c1ccc([N+](=O)[O-])o1)[n+]2[O-]`, the inhibition of growth at 25 µM in the assay on Trypanosoma cruzi [1] turned out to be 0%.
As for `Cc1cc2c(cc1C)[n+]([O-])c(NC(=O)c1ccc([N+](=O)[O-])o1)c(C#N)[n+]2[O-]`, the inhibition of growth at 25 µM in the assay with Trypanosoma cruzi [1] amounted to 0%.
Take `COc1ccc2c(c1)[n+]([O-])c(C#N)c(NC(=O)c1ccc([N+](=O)[O-])o1)[n+]2[O-]`: the MIC in assay [2] was found to be 14.5 µg/mL (≈ 39 µM).
For `N#Cc1c(NC(=O)c2ccc([N+](=O)[O-])o2)[n+]([O-])c2ccc(Cl)cc2[n+]1[O-]`, 5.81 µg/mL (≈ 15.5 µM) was the least that counted as inhibitory in assay [2] (MIC).
`N#Cc1c(NC(=O)c2ccc([N+](=O)[O-])o2)[n+]([O-])c2cc(Cl)c(Cl)cc2[n+]1[O-]` displayed an MIC in assay [2] of 13.6 µg/mL (≈ 33.1 µM).
In turn, `N#Cc1c(NC(=O)c2ccc([N+](=O)[O-])o2)[n+]([O-])c2ccc(F)cc2[n+]1[O-]` came in with a minimal inhibitory concentration (MIC) in assay [2] of 21.7 µg/mL (≈ 60.4 µM).
Compound `N#Cc1c(NC(=O)c2ccc([N+](=O)[O-])o2)[n+]([O-])c2cc(F)c(F)cc2[n+]1[O-]` gave an MIC in assay [2] of 22.2 µg/mL (≈ 58.7 µM).
As for `N#Cc1c(NC(=O)c2ccc([N+](=O)[O-])o2)[n+]([O-])c2cc(C(F)(F)F)ccc2[n+]1[O-]`, the lowest concentration to inhibit growth in assay [2] (MIC) was 12.8 µg/mL (≈ 31.3 µM).
Still for that read-out and setting: next, `N#Cc1c(NC(=O)c2ccco2)[n+]([O-])c2ccc(Cl)cc2[n+]1[O-]`: 15.4 µg/mL (≈ 46.4 µM).
Take `N#Cc1c(NC(=O)c2ccco2)[n+]([O-])c2cc(Cl)c(Cl)cc2[n+]1[O-]`: in the assay with Trypanosoma cruzi [1], the inhibition of growth at 25 µM was determined as 31.6%.
Consider `N#Cc1c(NC(=O)c2ccco2)[n+]([O-])c2ccc(F)cc2[n+]1[O-]`, for which the inhibition of growth at 25 µM in the assay with Trypanosoma cruzi [1] is 19.8%.
For the compound `N#Cc1c(NC(=O)c2ccco2)[n+]([O-])c2cc(C(F)(F)F)ccc2[n+]1[O-]`, in assay [2], the MIC stood at 17.9 µg/mL (≈ 49.1 µM).
`N#Cc1c(NC(=O)c2ccco2)[n+]([O-])c2ccc(C(F)(F)F)cc2[n+]1[O-]`: in assay [2], inhibition of growth (MIC) required 24.2 µg/mL (≈ 66.5 µM).
For the compound `N#Cc1c(NC(=O)c2cccs2)[n+]([O-])c2ccccc2[n+]1[O-]`, the inhibition of growth at 25 µM in the assay with Trypanosoma cruzi [1] was found to be 19%. For the same compound, in assay [2], 5.38 µg/mL (≈ 17.2 µM) was the least that counted as inhibitory (MIC).
Take `Cc1ccc2c(c1)[n+]([O-])c(C#N)c(NC(=O)c1cccs1)[n+]2[O-]`: the inhibition of growth at 25 µM in the assay on Trypanosoma cruzi [1] came to 16.4%. In assay [2], this compound registered a minimum inhibitory concentration (MIC) of 2.08 µg/mL (≈ 6.37 µM).
As to `Cc1cc2c(cc1C)[n+]([O-])c(NC(=O)c1cccs1)c(C#N)[n+]2[O-]`, in the assay with Trypanosoma cruzi [1], the inhibition of growth at 25 µM stood at 13.5%. In assay [2], this compound displayed an MIC of 1.19 µg/mL (≈ 3.5 µM).
`COc1ccc2c(c1)[n+]([O-])c(C#N)c(NC(=O)c1cccs1)[n+]2[O-]`: in the assay with Trypanosoma cruzi [1], the inhibition of growth at 25 µM came out at 15.1%. Besides, the MIC in assay [2] was 48.9 µg/mL (≈ 143 µM).
Turning to `N#Cc1c(NC(=O)c2cccs2)[n+]([O-])c2ccc(Cl)cc2[n+]1[O-]`, 2.47 µg/mL (≈ 7.12 µM) was the least that counted as inhibitory in assay [2] (MIC).
The same measure, in the same setting: next, `N#Cc1c(NC(=O)c2cccs2)[n+]([O-])c2cc(Cl)c(Cl)cc2[n+]1[O-]`: 13.6 µg/mL (≈ 35.7 µM).
Take `N#Cc1c(NC(=O)c2ccco2)[n+]([O-])c2ccccc2[n+]1[O-]`: in the assay on Trypanosoma cruzi [1], the inhibition of growth at 25 µM is 3.1%. For the same compound, the MIC in assay [2] came to 0.977 µg/mL (≈ 3.3 µM).
For `Cc1ccc2c(c1)[n+]([O-])c(C#N)c(NC(=O)c1ccco1)[n+]2[O-]` the same measures were 11.6% and 8.84 µg/mL (≈ 28.5 µM).
With `Cc1cc2c(cc1C)[n+]([O-])c(NC(=O)c1ccco1)c(C#N)[n+]2[O-]`, the inhibition of growth at 25 µM in the assay with Trypanosoma cruzi [1] is 13.1%.
Still for that read-out and setting: the same measure for `COc1ccc2c(c1)[n+]([O-])c(C#N)c(NC(=O)c1ccco1)[n+]2[O-]`: 9.5%.
Consider `CC1CS(=O)(=O)CCN1/N=C/c1ccc([N+](=O)[O-])o1` (configuration not stated) [NIFURTIMOX], for which, in the assay on Trypanosoma cruzi [3], the MIC came to 7.7 µM (≈ 2.21 µg/mL). Besides, the inhibition of growth at 25 µM with Trypanosoma cruzi [1] turned out to be 100%.
In assay [2], `CO[C@H]1/C=C/O[C@@]2(C)Oc3c(C)c(O)c4c(O)c(c(/C=N/N5CCN(C)CC5)c(O)c4c3C2=O)NC(=O)/C(C)=C\C=C\[C@H](C)[C@H](O)[C@@H](C)[C@@H](O)[C@@H](C)[C@H](OC(C)=O)[C@@H]1C` [RIFAMPIN] returned an MIC of 0.125 µg/mL (≈ 0.152 µM).
